Structures can show the parent of a compound that is named as a salt.
Tested on: Acinetobacter baumannii ATCC 17978
Assay: Antimicrobial susceptibility testing: 90% growth inhibitory concentration (IC90) determination
Type: cell-based
Conditions: 90% growth inhibitory concentration; Acinetobacter baumannii ATCC17978; Iso-Sensitest broth, OD 600 nm over 16h; read-out: ATCC17978 IC90
Summary of the method: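 Compounds serially twofold diluted (e.g. 50 to 0.097 μM final) in Iso-Sensitest broth, inoculated at ~5×10^(5) CFU/ml, incubated at 35±2° C. OD600 read every 20 minutes over 16h. IC90 taken as concentration inhibiting 90% of growth during logarithmic phase.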

| SMILES | IC90 [nM] |
| --- | --- |
| CCc1cc(Nc2nccn3c(-c4ccc(OC)c(F)c4F)cnc23)ccc1C(=O)NC(CCN)C(F)(F)F (stereo not shown) [Example 320, N-(4-amino-1,1,1-trifluorobutan-2-yl)-4-[[3-(2,3-difluoro-4-methoxyphenyl)imidazo[1,2-a]pyrazin-8-yl]amino]-2-ethylbenzamide; hydrochloride] | 2700 |
| CCc1cc(Nc2nccn3c(-c4ccc(OC)c(F)c4F)cnc23)ccc1C(=O)NCC(C)CNC(=O)[C@@H](N)CCCNC(=N)N (mixture of isomers) [Example 406, rac-N-(3-((R)-2-amino-5-guanidinopentanamido)-2-methylpropyl)-4-((3-(2,3-difluoro-4-methoxyphenyl)imidazo[1,2-a]pyrazin-8-yl)amino)-2-ethylbenzamide diformate] | 240 |

Same assay, conditions: Acinetobacter baumannii, ATCC17978, 16 h, 90% growth inhibitory concentration; Acinetobacter baumannii ATCC17978; Iso-Sensitest broth, OD 600 nm over 16h; read-out: ATCC17978 IC90

| SMILES | IC90 [nM] |
| --- | --- |
| N#CCOc1ccc(-c2cnc3c(Nc4ccc(C(=O)NCCCN5CCNCC5)c(Cl)c4)nccn23)c(F)c1F [Example 77, 2-chloro-4-((3-(4-(cyanomethoxy)-2,3-difluorophenyl)imidazo [1,2-a]pyrazin-8-yl)amino)-N-(3-(piperazin-1-yl)propyl)benzamide] | 100 |
| COc1ccc(-c2cnc3c(Nc4ccc(C(=O)NCCN5CCNCC5)c(C)c4)nccn23)cc1F [Example 199, 4-[[3-(3-fluoro-4-methoxyphenyl)imidazo[1,2-a]pyrazin-8-yl]amino]-2-methyl-N-(2-piperazin-1-ylethyl)benzamide;hydrochlo-ride] | 420 |
| CCc1cc(Nc2nccn3c(-c4ccc(OC)c(F)c4F)cnc23)ccc1C(=O)N[C@H](C)CNC(=O)[C@@H](N)CCCNC(=N)N [Example 331, N-[(2R)-1-[[(2S)-2-amino-5-carbamimidamidopentanoyl]amino]propan-2-yl]-4-[[3-(2,3-difluoro-4-methoxyphenyl)imidazo[1,2-a]pyrazin-8-yl]amino]-2-ethylbenzamide;formic acid] | 300 |
| CCc1cc(Nc2nccn3c(-c4ccc(Oc5ccccn5)c(F)c4F)cnc23)ccc1C(=O)NCCNC(=O)[C@H](N)CCNC(=N)N [Example 426, N-[2-[[(2R)-2-amino-4-guanidino-butanoyl]amino]ethyl]-4-[[3-[2,3-difluoro-4-(2-pyridyloxy)phenyl]imidazo [1,2-a]pyrazin-8-yl]amino]-2-ethyl-benzamide; formic acid] | 820 |
| COc1ccc(-c2cnc3c(Nc4ccc(C(=O)NCCCN)c(C)c4)nccn23)c(F)c1F [Example 64, N-(3-aminopropyl)-4-((3-(2,3-difluoro-4-methoxyphenyl)imidazo [1,2-a]pyrazin-8-yl)amino)-2-methylbenzamide] | 230 |
| CCc1cc(Nc2nccn3c(-c4ccc(Oc5ccccn5)c(F)c4F)cnc23)ccc1C(=O)NCCNC(=O)CCN [Example 421, N-[2-(3-aminopropanoylamino)ethyl]-4-[[3-[2,3-difluoro-4-(2-pyridyloxy)phenyl]imidazo [1,2-a]pyrazin-8-yl]amino]-2-ethyl-benzamide; formic acid] | 440 |
| COc1ccc(-c2cnc3c(Nc4ccc(C(=O)NCC5CCN(C)CC5)c(C)c4)nccn23)c(F)c1F [Example 62, 4-((3-(2,3-difluoro-4-methoxyphenyl)imidazo [1,2-a]pyrazin-8-yl)amino)-2-methyl-N-((1-methylpiperidin-4-yl)methyl)benzamide] | 250 |
| CNC(=O)c1ccc(Nc2nccn3c(-c4ccc(OC(F)F)cc4)cnc23)cc1CO [Example 225, 4-[[3-[4-(difluoromethoxy)phenyl]im-idazo[1,2-a]pyrazin-8-yl]amino]-2-(hydroxymethyl)-N-methylbenzamide] | 1100 |
| COc1ccc(-c2cnc3c(Nc4ccc(C(=O)N(C)Cc5ccncc5)c(C)c4)nccn23)cc1F [Example 73, 4-((3-(3-fluoro-4-methoxyphenyl)imidazo [1,2-a]pyrazin-8-yl)amino)-N,2-dimethyl-N-(pyridin-4-ylmethyl)benzamide] | 140 |
| CCc1cc(Nc2nccn3c(-c4ccc(OC)c(F)c4F)cnc23)ccc1C(=O)NCC1CN(C(=O)CN)C1 [Example 532, N-[[1-(2-aminoacetyl)azetidin-3-yl]methyl]-4-[[3-(2,3-difluoro-4-methoxy-phenyl)imidazo[1,2-a]pyrazin-8-yl]amino]-2-ethyl-benzamide; formic acid] | 61 |
| CCc1cc(Nc2nccn3c(-c4ccc(OC)c(F)c4F)cnc23)ccc1C(=O)NCC(=O)NCCO [Example 423, 4-((3-(2,3-difluoro-4-methoxyphenyl)imidazo[1,2-a]pyrazin-8-yl)amino)-2-ethyl-N-(2-((2-hydroxyethyl)amino)-2-oxoethyl)benzamide] | 210 |
| CCc1cc(Nc2nccn3c(-c4ccc(OC)c(F)c4F)cnc23)ccc1C(=O)NCC(=O)NCCN [Example 430, N-[2-(2-aminoethylamino)-2-oxo-ethyl]-4-[[3-(2,3-difluoro-4-methoxy-phenyl)imidazo[1,2-a]pyrazin-8-yl]amino]-2-ethyl-benzamide; formic acid] | 230 |
| CCc1cc(Nc2nccn3c(-c4ccc(OC)c(F)c4F)cnc23)ccc1C(=O)N[C@H](C)CCNC(=O)[C@@H](N)CCCNC(=N)N [Example 375, N-[(2R)-4-[[(2S)-2-amino-5-carbamimidamidopentanoyl]amino]butan-2-yl]-4-[[3-(2,3-difluoro-4-methoxyphenyl)imidazo[1,2-a]pyrazin-8-yl]amino]-2-ethylbenzamide] | 190 |
| CCc1cc(Nc2nccn3c(-c4ccc(OC)c(F)c4F)cnc23)ccc1C(=O)NCCNC(=O)[C@@H](N)[C@@H](C)O [Example 393, N-[2-[[(2S,3R)-2-amino-3-hydroxy-butanoyl]amino]ethyl]-4-[[3-(2,3-difluoro-4-methoxy-phenyl)imidazo[1,2-a]pyrazin-8-yl]amino]-2-ethyl-benzamide; formic acid] | 260 |

More lines, now with the values ahead:

| IC90 [nM] | SMILES |
| --- | --- |
| 190 | CCc1cc(Nc2nccn3c(-c4ccc(OC)c(F)c4F)cnc23)ccc1C(=O)NCCN1CCC(C(N)=O)C1 (stereo not shown) [Example 561, 1-[2-[[4-[[3-(2,3-difluoro-4-methoxy-phenyl)imidazo[1,2-a]pyrazin-8-yl]amino]-2-ethyl-benzoyl]amino]ethyl]pyrroli-dine-3-carboxamide] |
| 320 | COc1ccc(-c2cnc3c(Nc4ccc(C(=O)N[C@@H](C)CN)c(C)c4)nccn23)c(F)c1F [Example 508, #N!-[(2#S!)-1-aminopropan-2-yl]-4-[[3-(2,3-difluoro-4-methoxyphenyl)imidazo[1,2-a]pyrazin-8-yl]amino]-2-methylbenzamide;dihydrochlo-ride] |
| 2700 | Cc1cc(Nc2nccn3c(-c4ccc(OC(F)F)cc4)cnc23)ccc1C(=O)NC(CO)CN1CCOCC1 (stereo not shown) [Example 251, 4-[[3-[4-(difluoromethoxy)phenyl]im-idazo[1,2-a]pyrazin-8-yl]amino]-N-(1-hydroxy-3-morpholin-4-ylpropan-2-yl)-2-methylbenzamide] |
| 170 | CCc1cc(Nc2nccn3c(-c4ccc(OC)c(F)c4F)cnc23)ccc1C(=O)NCC1CCN(C(=N)N)CC1 [Example 298, N-[(1-carbamimidoylpiperidin-4-yl)methyl]-4-[[3-(2,3-difluoro-4-methoxyphenyl)imidazo[1,2-a]pyrazin-8-yl]amino]-2-ethylbenzamide] |
| 150 | CCc1cc(Nc2nccn3c(-c4ccc(OC)c(F)c4F)cnc23)ccc1C(=O)NCC1CN(C)C1 [Example 297, 4-[[3-(2,3-difluoro-4-methoxyphenyl)imidazo[1,2-a]pyrazin-8-yl]amino]-2-ethyl-N-[(1-methylazetidin-3-yl)methyl]benzamide] |
| 300 | CCc1cc(Nc2nccn3c(-c4ccc(Oc5ccncn5)c(F)c4F)cnc23)ccc1C(=O)NCCCNC(=O)NCCNCCCN [Example 565, N-[3-[2-(3-aminopropylamino)ethylcar-bamoylamino]propyl]-4-[[3-(2,3-difluoro-4-pyrimidin-4-yloxy-phenyl)imidazo[1,2-a]pyrazin-8-yl]amino]-2-ethyl-benzamide; formic acid] |
| 470 | CCc1cc(Nc2nccn3c(-c4ccc(Oc5ncccn5)c(F)c4F)cnc23)ccc1C(=O)NCC1CCNCC1 [Example 548, 4-((3-(2,3-difluoro-4-(pyrimidin-2-yloxy)phenyl)imidazo[1,2-a]pyrazin-8-yl)amino)-2-ethyl-N-(piperidin-4-ylmethyl)benzamide formate] |
| 940 | COc1ccc(-c2cnc3c(Nc4ccc5c(c4)CCN(CCN(C)C)C5=O)nccn23)cc1F [Example 116, 2-[2-(dimethylamino)ethyl]-6-[[3-(3-fluoro-4-methoxy-phenyl)imidazo[1,2-a]pyrazin-8-yl]amino]-3,4-dihydroisoquinolin-1-one] |
| 7100 | Cc1cc(Nc2nccn3c(-c4ccc(OC(F)F)cc4)cnc23)ccc1C(=O)N[C@@H](C)CN [Example 269, N-[(2S)-1-aminopropan-2-yl]-4-[[3-[4-(difluoromethoxy)phenyl]im-idazo[1,2-a]pyrazin-8-yl]amino]-2-methylbenzamide;hydrochlo-ride] |
| 2500 | Cc1cc(Nc2nccn3c(-c4ccc(Cl)c(F)c4F)cnc23)ccc1C(=O)NCCN [Example 249, N-(2-aminoethyl)-4-[[3-(4-chloro-2,3-difluorophenyl)imidazo[1,2-a]pyrazin-8-yl]amino]-2-methylbenzamide;hydrochlo-ride] |
| 140 | CCc1cc(Nc2nccn3c(-c4ccc(OC(F)F)c(F)c4F)cnc23)ccc1C(=O)NCCc1nnc(C)[nH]1 [Example 295, 4-[[3-[4-(difluoromethoxy)-2,3-difluorophenyl]imidazo[1,2-a]pyrazin-8-yl]amino]-2-ethyl-N-[2-(5-methyl-4H-1,2,4-triazol-3-yl)ethyl]benzamide] |
| 190 | COc1ccc(-c2cnc3c(Nc4ccc(C(=O)N(C)Cc5cccnc5)c(C)c4)nccn23)cc1F [Example 38, 4-[[3-(3-fiuoro-4-methoxy-phenyl)imidazo[1,2-a]pyrazin-8-yl]amino]-N,2-dimethyl-N-(3-pyridylmethyl) benzamide] |

From patent US20230012368A1 (Hoffmann-La Roche Inc., priority 2018, published 2023)
